Experimental data as given in ChEMBL document CHEMBL5352388 (Eur J Med Chem, 2022).
Activity calls are given as the source filed them. The calls are words filed in the database; no cut-off is given here.

Key:
HeLa = test: Antiproliferative activity against human HeLa cells assessed as inhibition of cell growth incubated for 72 hrs by CCK-8 assay; type: functional, cell-based
[1] = target: Lysine-specific histone demethylase 1A (Homo sapiens, UniProt O60341)
Description: Inhibition of recombinant human LSD1 using fluorometric substrate by HRP based fluorimeter microplate reader assay

A549 [2] = test: cells; settings: Homo sapiens, A549, 72 h
Description: Antiproliferative activity against human A549 cells assessed as inhibition of cell growth incubated for 72 hrs by CCK-8 assay

NCI-H460 = test: cells; settings: Homo sapiens, NCI-H460, 72 h
Description: Antiproliferative activity against human NCI-H460 cells assessed as inhibition of cell growth incubated for 72 hrs by CCK-8 assay

MCF7 = test: cells; settings: Homo sapiens, MCF7, 72 h
Description: Antiproliferative activity against human MCF7 cells assessed as inhibition of cell growth incubated for 72 hrs by CCK-8 assay

MGC-803 = test: cells; settings: Homo sapiens, MGC-803, 72 h
Description: Antiproliferative activity against human MGC-803 cells assessed as inhibition of cell growth incubated for 72 hrs by CCK-8 assay

in vitro = settings: human, THLE-2 cells
Description: Antiproliferative activity against human THLE-2 cells assessed as inhibition of cell growth incubated for 72 hrs by CCK-8 assay

[3] = Half life in human liver microsomes measured upto 60 mins in presence of NADPH by LC/MS/MS analysis; type: ADME, Microsome
[4] = Intrinsic clearance in human liver microsomes measured upto 60 mins in presence of NADPH by LC/MS/MS analysis; type: ADME, Microsome; settings: read-out: CLH
[5] = Intrinsic clearance in human liver measured upto 60 mins in presence of NADPH by LC/MS/MS analysis; type: ADME, tissue-based; settings: read-out: CLH
CYP1A2 = target: T1, CYP1A2 (Homo sapiens, UniProt P05177); test: Inhibition of CYP1A2 (unknown origin) at 10 uM incubated for 20 mins in presence of NADPH by LC/MS/MS analysis relative to control; type: ADME
T1 sequence (P05177 whole entry): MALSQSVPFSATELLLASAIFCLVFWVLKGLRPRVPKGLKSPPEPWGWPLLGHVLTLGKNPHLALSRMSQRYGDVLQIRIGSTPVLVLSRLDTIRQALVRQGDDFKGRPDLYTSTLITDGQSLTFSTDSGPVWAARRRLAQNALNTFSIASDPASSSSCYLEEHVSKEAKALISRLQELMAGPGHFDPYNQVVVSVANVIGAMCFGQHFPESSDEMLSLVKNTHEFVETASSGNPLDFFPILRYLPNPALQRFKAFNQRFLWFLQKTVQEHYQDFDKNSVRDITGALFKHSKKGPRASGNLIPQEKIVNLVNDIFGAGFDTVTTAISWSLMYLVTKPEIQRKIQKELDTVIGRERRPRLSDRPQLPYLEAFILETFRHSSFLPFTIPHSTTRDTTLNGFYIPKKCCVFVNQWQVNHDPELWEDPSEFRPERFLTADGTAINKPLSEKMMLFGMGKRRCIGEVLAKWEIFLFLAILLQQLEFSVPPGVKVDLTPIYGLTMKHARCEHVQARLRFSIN

CYP2C9 = CYP2C9 (Homo sapiens, UniProt P11712); test: Inhibition of CYP2C9 (unknown origin) at 10 uM incubated for 20 mins in presence of NADPH by LC/MS/MS analysis relative to control; type: ADME
CYP2C19 = CYP2C19 (Homo sapiens, UniProt P33261); test: Inhibition of CYP2C19 (unknown origin) at 10 uM incubated for 20 mins in presence of NADPH by LC/MS/MS analysis relative to control; type: ADME
CYP2D6 = CYP2D6 (Homo sapiens, UniProt P10635); test: Inhibition of CYP2D6 (unknown origin) at 10 uM incubated for 20 mins in presence of NADPH by LC/MS/MS analysis relative to control; type: ADME
CYP3A4 = CYP3A4 (Homo sapiens, UniProt P08684); test: Inhibition of CYP3A4 (unknown origin) at 10 uM incubated for 20 mins in presence of NADPH by LC/MS/MS analysis relative to control; type: ADME
[6] = target: Voltage-gated inwardly rectifying potassium channel KCNH2 (Homo sapiens, UniProt Q12809); test: Inhibition of human ERG stably expressed in CHO cells by patch clamp assay; type: toxicity, cell-based
A549 [7] = test: Induction of apoptosis in human A549 cells at 4 uM incubated for 48 hrs by Annexin V-FITC/PI staining based flow cytometry method; type: functional
A549 [8] = test: Antitumor activity against human A549 cells xenografted in BALB/c mouse assessed as reduction in tumor growth at 10 mg/kg,ip administrated for 15 days; type: functional, organism-based; settings: time 15.0 day
[9] = Toxicity in BALB/c mouse xenografted with human A549 cells assessed as change in body weight at 10 mg/kg,ip administrated for 15 days; type: organism-based; settings: in vivo, 360 h, time 15 day
[10] = target: T2, Amine oxidase [flavin-containing] A (Homo sapiens, UniProt P21397)
T2 sequence (P21397 whole entry): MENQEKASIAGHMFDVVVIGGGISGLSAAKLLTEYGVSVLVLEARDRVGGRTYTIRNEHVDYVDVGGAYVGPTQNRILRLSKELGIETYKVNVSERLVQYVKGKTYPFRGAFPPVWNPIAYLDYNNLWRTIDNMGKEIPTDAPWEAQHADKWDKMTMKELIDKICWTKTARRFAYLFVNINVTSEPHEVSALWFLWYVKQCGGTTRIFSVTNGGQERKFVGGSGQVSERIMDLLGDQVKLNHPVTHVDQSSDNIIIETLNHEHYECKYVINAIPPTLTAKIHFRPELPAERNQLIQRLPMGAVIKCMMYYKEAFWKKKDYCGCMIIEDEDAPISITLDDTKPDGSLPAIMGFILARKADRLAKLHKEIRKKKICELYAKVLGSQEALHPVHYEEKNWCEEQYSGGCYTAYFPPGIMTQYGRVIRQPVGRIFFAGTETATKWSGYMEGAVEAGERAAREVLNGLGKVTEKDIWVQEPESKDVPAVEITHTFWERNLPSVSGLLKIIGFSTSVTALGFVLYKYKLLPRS
Description: Inhibition of recombinant MAO-A (unknown origin) incubated for 60 mins by luminescence based flow cytometry

[11] = target: T3, Amine oxidase [flavin-containing] B (Homo sapiens, UniProt P27338)
T3 sequence (P27338 whole entry): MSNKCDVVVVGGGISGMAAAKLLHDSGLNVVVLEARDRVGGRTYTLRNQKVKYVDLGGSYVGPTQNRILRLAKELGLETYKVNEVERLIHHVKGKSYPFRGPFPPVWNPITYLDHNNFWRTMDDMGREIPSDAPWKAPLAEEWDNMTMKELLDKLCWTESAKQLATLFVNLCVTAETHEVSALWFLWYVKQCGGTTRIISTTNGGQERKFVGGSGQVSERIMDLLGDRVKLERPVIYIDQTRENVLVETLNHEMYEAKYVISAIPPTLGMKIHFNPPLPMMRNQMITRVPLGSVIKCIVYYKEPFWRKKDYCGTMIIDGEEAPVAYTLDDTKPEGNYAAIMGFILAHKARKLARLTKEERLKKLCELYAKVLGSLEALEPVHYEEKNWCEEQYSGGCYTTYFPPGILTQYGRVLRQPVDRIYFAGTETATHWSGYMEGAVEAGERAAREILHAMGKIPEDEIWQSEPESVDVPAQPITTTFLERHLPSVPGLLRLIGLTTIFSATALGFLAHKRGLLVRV
Description: Inhibition of recombinant MAO-B (unknown origin) incubated for 60 mins by luminescence based flow cytometry

Chain of CYP2C9 (P11712 whole entry): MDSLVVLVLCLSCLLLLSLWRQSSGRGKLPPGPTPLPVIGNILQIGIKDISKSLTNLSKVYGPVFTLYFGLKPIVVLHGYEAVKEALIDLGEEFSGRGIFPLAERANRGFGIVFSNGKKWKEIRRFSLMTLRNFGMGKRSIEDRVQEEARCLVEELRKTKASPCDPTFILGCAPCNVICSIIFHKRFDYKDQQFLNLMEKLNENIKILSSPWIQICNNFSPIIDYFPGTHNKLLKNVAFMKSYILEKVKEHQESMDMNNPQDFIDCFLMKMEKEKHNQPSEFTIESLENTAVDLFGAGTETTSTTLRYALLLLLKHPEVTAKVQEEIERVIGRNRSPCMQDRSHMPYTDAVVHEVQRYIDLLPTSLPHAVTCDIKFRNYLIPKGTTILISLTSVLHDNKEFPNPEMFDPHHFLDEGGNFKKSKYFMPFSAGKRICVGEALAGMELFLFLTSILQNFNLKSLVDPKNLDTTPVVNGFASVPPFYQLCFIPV
Chain of CYP2D6 (P10635 whole entry): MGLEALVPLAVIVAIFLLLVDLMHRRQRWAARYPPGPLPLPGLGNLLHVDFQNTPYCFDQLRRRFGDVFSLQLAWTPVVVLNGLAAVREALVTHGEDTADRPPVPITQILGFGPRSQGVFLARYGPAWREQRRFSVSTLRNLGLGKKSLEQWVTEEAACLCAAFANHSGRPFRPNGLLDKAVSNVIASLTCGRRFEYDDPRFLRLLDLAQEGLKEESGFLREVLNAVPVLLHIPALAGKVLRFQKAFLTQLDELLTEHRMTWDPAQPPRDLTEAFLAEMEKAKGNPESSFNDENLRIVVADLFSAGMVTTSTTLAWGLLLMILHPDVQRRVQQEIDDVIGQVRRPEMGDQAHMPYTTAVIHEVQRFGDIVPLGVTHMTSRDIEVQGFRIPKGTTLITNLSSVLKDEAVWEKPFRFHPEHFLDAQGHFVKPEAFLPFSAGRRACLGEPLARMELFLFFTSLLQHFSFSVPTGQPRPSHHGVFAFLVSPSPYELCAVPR
Chain of Voltage-gated inwardly rectifying potassium channel KCNH2 (Q12809 whole entry): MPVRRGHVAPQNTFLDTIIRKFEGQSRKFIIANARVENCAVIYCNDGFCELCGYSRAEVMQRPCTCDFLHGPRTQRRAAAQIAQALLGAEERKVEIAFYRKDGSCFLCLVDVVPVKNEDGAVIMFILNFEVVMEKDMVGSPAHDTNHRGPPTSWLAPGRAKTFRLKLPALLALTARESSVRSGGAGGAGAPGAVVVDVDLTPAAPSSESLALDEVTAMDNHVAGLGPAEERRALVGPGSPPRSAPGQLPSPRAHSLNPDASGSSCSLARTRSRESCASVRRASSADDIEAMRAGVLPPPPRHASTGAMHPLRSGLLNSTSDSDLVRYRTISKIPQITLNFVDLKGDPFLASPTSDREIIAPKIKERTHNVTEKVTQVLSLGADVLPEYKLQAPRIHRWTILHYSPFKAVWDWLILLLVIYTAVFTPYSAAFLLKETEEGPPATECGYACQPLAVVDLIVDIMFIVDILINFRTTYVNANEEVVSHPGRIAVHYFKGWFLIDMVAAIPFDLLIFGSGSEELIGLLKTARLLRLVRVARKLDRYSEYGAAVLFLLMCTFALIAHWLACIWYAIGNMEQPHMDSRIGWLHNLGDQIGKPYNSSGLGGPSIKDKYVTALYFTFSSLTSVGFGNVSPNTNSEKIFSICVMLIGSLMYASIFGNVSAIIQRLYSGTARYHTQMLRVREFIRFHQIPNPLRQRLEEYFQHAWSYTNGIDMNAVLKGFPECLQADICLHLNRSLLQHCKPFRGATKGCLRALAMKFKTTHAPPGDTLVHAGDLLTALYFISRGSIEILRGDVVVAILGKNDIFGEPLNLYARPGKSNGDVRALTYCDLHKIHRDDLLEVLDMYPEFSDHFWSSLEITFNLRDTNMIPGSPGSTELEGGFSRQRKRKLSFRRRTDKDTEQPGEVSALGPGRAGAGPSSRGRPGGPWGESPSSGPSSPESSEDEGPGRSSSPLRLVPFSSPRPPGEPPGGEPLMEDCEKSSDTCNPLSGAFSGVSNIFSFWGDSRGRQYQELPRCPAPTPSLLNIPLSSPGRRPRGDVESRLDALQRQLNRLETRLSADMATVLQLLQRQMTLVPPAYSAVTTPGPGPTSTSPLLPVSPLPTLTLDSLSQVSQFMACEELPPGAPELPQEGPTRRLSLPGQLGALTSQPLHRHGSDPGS
Chain of CYP3A4 (P08684 whole entry): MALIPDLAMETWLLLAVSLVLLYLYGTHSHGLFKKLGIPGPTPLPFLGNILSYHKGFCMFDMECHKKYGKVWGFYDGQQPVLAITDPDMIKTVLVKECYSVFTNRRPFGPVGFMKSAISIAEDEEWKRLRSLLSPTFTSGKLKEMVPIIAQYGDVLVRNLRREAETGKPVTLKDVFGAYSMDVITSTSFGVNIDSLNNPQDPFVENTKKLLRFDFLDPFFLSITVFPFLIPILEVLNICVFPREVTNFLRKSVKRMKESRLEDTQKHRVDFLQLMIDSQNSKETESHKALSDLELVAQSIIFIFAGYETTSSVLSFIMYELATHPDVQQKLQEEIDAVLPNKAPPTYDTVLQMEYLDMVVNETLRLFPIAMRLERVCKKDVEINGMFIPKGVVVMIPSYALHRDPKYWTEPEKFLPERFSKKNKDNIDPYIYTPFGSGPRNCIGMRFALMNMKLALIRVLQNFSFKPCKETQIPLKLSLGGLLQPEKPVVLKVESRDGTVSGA
Chain of CYP2C19 (P33261 whole entry): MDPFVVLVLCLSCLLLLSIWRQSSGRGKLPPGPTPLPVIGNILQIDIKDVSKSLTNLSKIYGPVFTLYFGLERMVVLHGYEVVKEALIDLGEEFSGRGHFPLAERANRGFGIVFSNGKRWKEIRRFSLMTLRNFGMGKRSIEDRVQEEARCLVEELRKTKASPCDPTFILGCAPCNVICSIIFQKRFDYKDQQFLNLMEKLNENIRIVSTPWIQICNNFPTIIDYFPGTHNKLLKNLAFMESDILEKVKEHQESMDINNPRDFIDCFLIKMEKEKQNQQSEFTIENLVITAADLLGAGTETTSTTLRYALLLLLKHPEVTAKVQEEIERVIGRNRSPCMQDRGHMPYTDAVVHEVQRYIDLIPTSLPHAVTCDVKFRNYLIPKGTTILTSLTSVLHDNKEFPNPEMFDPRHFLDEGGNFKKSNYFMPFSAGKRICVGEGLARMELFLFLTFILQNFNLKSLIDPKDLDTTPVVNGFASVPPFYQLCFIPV

Row | Structure (SMILES) | IC50 (HeLa) [µM] | IC50 [1] [µM] | IC50 (A549 [2]) [µM] | IC50 (NCI-H460) [µM] | IC50 (MCF7) [µM] | IC50 (MGC-803) [µM] | IC50 at 72 h (in vitro) [µM] | other results
1 | Cc1ccc(-c2cc3[nH]cc(C(=O)N4CCC(N)CC4)c3cc2-c2ccc(C#N)cc2)c(F)c1 | 27 | 0.063 | 2.3 | 28.3 | 16.9 | 24 | 27.8 | –
2 | Cc1ccc(-c2cc3[nH]cc(C(=O)N4CCNCC4)c3cc2-c2ccc(C#N)cc2)cc1 | 15.3 | 0.061 | 2.3 | 22.3 | 12.3 | 9.8 | 19.1 | –
3 | Cc1ccc(-c2cc3[nH]cc(C(=O)N4CCC(N)CC4)c3cc2-c2ccc(C#N)c(F)c2)cc1 | 13.4 | 0.087 | 2.7 | 17.7 | 14.7 | 12.1 | 13.3 | –
4 | Cc1ccc(-c2cc3[nH]cc(C(=O)N4CCC(N)CC4)c3cc2-c2ccc(C#N)cc2)cc1C | 13.7 | 0.05 | 4.3 | 18.6 | 14.7 | 15.6 | 20.8 | –
5 | Cc1cc(C)cc(-c2cc3[nH]cc(C(=O)N4CCC(N)CC4)c3cc2-c2ccc(C#N)cc2)c1 | 10 | 0.061 | 5.3 | 13.6 | 7 | 8.8 | 11.8 | –
6 | Cc1ccc(-c2cc3[nH]cc(C(=O)N4CCC(N)CC4)c3cc2-c2ccc(C#N)cc2)cc1F | 16.6 | 0.103 | 3.5 | 29.3 | 10.2 | 15.6 | 29.9 | –
7 | CCc1ccc(-c2cc3[nH]cc(C(=O)N4CCC(N)CC4)c3cc2-c2ccc(C#N)cc2)cc1 | 14.7 | 0.123 | 17.3 | 26.9 | 14.7 | 12.9 | 29.6 | –
8 | Cc1ccc(-c2cc3[nH]cc(C(=O)N4CCC[C@H](N)C4)c3cc2-c2ccc(C#N)cc2)cc1 | 11.4 | 0.085 | 8.8 | 16.2 | 6.1 | 9 | 17.5 | –
9 | Cc1ccc(-c2cc3c(cc2-c2ccc(C#N)cc2)c(C(=O)N2CCC(N)CC2)cn3Cc2cccc(C#N)c2)cc1 | 6.6 | 0.161 | 3.4 | 7.7 | 6.7 | 4.6 | 5.8 | –

More lines, main results first:

Row | IC50 (HeLa) [µM] | IC50 [1] [µM] | IC50 (A549 [2]) [µM] | IC50 (NCI-H460) [µM] | IC50 (MCF7) [µM] | IC50 (MGC-803) [µM] | IC50 at 72 h (in vitro) [µM] | Structure (SMILES) | other results
10 | 12.6 | 0.06 | 15.4 | 9.4 | 8.5 | 9.8 | 16.1 | Cc1ccc(-c2cc3[nH]cc(C(=O)NCC4CCNCC4)c3cc2-c2ccc(C#N)cc2)cc1 | –
11 | 10.2 | – | 3.6 | 4.8 | 10.5 | 11.5 | 5.7 | Cc1ccc(-c2cc3occ(CN4CCC[C@H](N)C4)c3cc2-c2ccc(C#N)cc2)cc1 | half-life [3]: 56.6 min; microsomal CLint [4]: 24.5 µL/min/mg; CLint scaled [5]: 22.1 mL/min/kg; inhibition at 20 min, 10 µM (CYP1A2): 4.9%; inhibition at 20 min, 10 µM (CYP2C9): 3.6%; inhibition at 20 min, 10 µM (CYP2C19): 10.5%; inhibition at 20 min, 10 µM (CYP2D6): 88.6%; inhibition at 20 min, 10 µM (CYP3A4): 19%; IC50 [6]: 6.06 µM; Activity (A549 [7]): 20.94%; Activity (A549 [8]): Active; Activity [9]: Non-Toxic; IC50 [10]: > 20 µM; IC50 [11]: > 20 µM
12 | 14.2 | 0.053 | 4.2 | 27.6 | 10 | 9.3 | 23.9 | Cc1ccc(-c2cc3[nH]cc(C(=O)N4CCC(N)CC4)c3cc2-c2ccc(C#N)cc2)cc1 | –
13 | 7.1 | 0.012 | 5.5 | 4.7 | 7.1 | 5.3 | 7.3 | Cc1ccc(-c2cc3c(cc2-c2ccc(C#N)cc2)c(C(=O)N2CCC(N)CC2)cn3C)cc1 | –
